For one test, the target named is T1, ZFP91 (Homo sapiens, UniProt Q96JP5+Q96SW2).
T1 construct: endogenous in cells; host or cells: MM1 S (ATCC CRL-2974)
The test is described as follows: Selectivity western blot assay in MM1 S cells, ZFP91. The format is cell-based. The arrangement: key: A represents no degradation observed at 30 μM; B represents trace degradation at 30 μM (below 20%); C represents weak degradation at 30 μM (below 50%); D represents degradation at 30 μM (>90%); E represents degradation at 3 μM (>90%); F represents degradation at 0.3 μM (>90%). The note with it: MM1 S cells, 0.3, 3 and 30 μM, 6 hours. How it is done:
MM1 S cells were purchased from ATCC (cat. Number CRL-2974), sub-cultured in 90% RPMI 1640 with 10% FBS, supplemented with 1×P/S and incubated at 37° C., 5% CO2. Compounds were stored as 10 mM DMSO stock. For the assay, MM1 S cells (3 million cells/well) were plated in 6-well plates and incubated over night. Cells were treated with respective compounds using a serial dilution: 0.3 μM, 3 μM and 30 μM as well as a vehicle only (DMSO) control for 6 hours. Media with suspension cells was subsequently transferred to 15 mL conical tubes, wells rinsed twice with ice-cold PBS and merged with cell suspension in respective 15 mL conical tube. Cells were spinned down, supernatant aspirated, pellets resuspended in ice-cold PBS and transferred to microtubes. Cells were spinned down, supernatant aspirated and pellets resuspended in 120 μL RIPA lysis buffer supplemented with protease and phosphatase inhibitors. Cell lysates were incubated on ice for 20 minutes followed by centrifugation at >20,000×g for 5 min. Supernatants were transferred to fresh microtubes and stored at −80° C. Total protein concentration was determined using a BCA assay with a BSA standard curve and concentration of all samples was adjusted to 1 mg/mL. 25 μL 4×LDS sample buffer supplemented with 100 mM DTT was added to 75 μL sample. Samples were centrifuged (8,000×g, 1 min) and incubated at 95° C. for 5 min followed by another centrifugation step (8,000×g, 1 min). 20 μL of each sample was loaded on a 4-12% gel alongside a protein molecular weight marker. Gels were run in the presence of MOPS buffer at 80 Volts for 30 min, followed by 120 Volts for 1.5 h and proteins subsequently transferred onto nitrocellulose membranes at 20 Volts for 7 min using an iBlot2 Gel Transfer Device. Membranes were then cut horizontally into two pieces, covering 80-50 kDa and 50-25 kDa. Blocking the membranes was performed by gently shaking in 5% (w/v) skim milk in TSB-T for 1 hr at room temperature. All primary antibodies were used at a 1/1000 in 5% (w/v) BSA dissolved in TBST and incubated with membranes over night at 4° C. After three washes with 1×TBST for 5 min, HRP-coupled secondary antibodies diluted in 5% (w/v) BSA/TBST (Goat Anti-Rb IgG, dil. 1/10,000; Goat Anti-Mouse IgG, dil. 1/5000) were added for 1 hr at room temperature. After three washes with 1×TBST (5 minutes each), membranes were incubated with ECL reagent for 1 min at room temperature. Chemiluminescence signals were then detected using a LAS-4000 system with default settings and signals quantified using Image Studio Lite software (version 5.2). Membrane parts previously incubated with antibody against CK1 alpha were stripped off antibodies by incubating with stripping buffer for 30 minutes followed by three washed with TBST (5 min each), blocking with 5% (w/v) skim milk for 1 hr, and incubation with primary antibody against uGAPDH overnight at 4° C. Subsequent washes, incubation with secondary antibody and signal acquisition were performed as described above.

Test [1] concerns the target T2, GSPT1 (Homo sapiens, UniProt P15170+Q96SW2). Put plainly: GSPT1 degradation immunofluorescence assay in CAL-51 cells. The format is cell-based. The arrangement: endogenous in cells; host or cells: CAL-51 (DSMZ ACC302). The note with it: 6 hours, Table 4, read-out: Activity for GSPT1 degradation, Code (DC50). Put shortly:
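CAL-51 cells on fibronectin treated 6 h with compound (typically 30 μM to 0.1 nM), then fixed, permeabilised and immunostained for GSPT1, with phalloidin and DAPI. High-content imaging gave mean GSPT1 intensity per segmented cell. DC50 from non-linear regression after normalisation to DMSO and CC-885 (10 μM) controls.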

In test [2] the target is T2, GSPT1. Put plainly: GSPT1 degradation in tumors of mice treated with compound 210. The conditions noted are these: 1 mg/kg, 3 mg/kg, 6 mg/kg; compared to vehicle control. The arrangement: from tissue; host or cells: NCI-H1155 subcutaneous xenograft tumours from BALB/c nude mice. Format: in vivo.

T2 sequence (P15170 whole entry): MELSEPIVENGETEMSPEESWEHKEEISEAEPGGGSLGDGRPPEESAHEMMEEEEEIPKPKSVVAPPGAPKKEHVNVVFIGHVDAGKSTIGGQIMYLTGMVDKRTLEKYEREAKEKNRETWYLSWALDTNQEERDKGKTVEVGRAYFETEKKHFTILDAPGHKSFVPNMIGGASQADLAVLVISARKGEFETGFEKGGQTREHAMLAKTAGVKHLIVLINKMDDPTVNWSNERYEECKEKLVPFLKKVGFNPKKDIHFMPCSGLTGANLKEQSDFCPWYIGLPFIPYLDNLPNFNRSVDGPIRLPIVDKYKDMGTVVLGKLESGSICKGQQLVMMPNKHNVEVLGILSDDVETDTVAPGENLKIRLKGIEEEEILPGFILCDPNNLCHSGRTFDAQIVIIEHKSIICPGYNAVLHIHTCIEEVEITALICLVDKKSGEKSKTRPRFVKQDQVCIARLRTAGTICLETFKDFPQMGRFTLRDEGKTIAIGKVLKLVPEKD
T2 sequence (Q96SW2 whole entry): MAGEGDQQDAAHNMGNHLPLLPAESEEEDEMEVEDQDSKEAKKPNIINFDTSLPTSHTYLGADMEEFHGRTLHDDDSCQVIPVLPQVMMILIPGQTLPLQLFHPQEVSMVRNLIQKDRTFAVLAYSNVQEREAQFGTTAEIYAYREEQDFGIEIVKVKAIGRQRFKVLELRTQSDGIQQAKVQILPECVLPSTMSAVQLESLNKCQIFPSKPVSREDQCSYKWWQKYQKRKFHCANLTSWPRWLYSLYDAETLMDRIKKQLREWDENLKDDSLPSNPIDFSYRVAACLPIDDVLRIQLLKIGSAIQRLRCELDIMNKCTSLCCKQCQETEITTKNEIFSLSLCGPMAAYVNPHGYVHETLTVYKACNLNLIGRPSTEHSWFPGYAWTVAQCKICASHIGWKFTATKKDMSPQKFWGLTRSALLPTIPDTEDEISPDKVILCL
T2 sequence (Q16531 whole entry partner): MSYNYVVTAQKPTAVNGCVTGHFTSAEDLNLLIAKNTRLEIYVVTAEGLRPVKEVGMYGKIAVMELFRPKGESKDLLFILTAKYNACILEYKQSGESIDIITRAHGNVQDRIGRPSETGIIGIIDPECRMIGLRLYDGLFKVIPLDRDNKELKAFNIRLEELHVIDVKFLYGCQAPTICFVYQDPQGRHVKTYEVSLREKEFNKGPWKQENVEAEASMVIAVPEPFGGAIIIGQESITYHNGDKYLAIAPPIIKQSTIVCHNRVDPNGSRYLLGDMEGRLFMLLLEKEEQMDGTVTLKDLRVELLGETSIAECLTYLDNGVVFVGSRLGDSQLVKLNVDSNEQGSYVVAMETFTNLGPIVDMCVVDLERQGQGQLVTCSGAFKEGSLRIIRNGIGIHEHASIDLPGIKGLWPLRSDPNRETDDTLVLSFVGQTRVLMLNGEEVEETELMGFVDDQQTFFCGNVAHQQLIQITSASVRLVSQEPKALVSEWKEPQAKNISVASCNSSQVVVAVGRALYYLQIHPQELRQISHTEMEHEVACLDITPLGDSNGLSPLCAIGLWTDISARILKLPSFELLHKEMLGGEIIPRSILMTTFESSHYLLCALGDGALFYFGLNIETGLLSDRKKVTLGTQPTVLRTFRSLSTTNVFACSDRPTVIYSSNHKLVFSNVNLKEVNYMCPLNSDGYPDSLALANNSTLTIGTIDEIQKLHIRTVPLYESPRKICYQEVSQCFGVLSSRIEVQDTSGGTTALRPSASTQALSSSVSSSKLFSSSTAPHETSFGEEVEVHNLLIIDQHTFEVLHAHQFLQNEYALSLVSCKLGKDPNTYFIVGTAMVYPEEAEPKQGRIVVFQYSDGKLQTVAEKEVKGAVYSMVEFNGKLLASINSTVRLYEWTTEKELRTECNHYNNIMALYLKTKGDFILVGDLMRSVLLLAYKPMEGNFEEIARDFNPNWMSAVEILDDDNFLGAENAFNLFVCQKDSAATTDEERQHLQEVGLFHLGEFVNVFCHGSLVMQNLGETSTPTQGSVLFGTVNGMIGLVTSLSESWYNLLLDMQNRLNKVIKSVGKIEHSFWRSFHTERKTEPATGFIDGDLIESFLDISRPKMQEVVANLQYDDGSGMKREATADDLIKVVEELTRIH
T1 sequence (Q96JP5 whole entry): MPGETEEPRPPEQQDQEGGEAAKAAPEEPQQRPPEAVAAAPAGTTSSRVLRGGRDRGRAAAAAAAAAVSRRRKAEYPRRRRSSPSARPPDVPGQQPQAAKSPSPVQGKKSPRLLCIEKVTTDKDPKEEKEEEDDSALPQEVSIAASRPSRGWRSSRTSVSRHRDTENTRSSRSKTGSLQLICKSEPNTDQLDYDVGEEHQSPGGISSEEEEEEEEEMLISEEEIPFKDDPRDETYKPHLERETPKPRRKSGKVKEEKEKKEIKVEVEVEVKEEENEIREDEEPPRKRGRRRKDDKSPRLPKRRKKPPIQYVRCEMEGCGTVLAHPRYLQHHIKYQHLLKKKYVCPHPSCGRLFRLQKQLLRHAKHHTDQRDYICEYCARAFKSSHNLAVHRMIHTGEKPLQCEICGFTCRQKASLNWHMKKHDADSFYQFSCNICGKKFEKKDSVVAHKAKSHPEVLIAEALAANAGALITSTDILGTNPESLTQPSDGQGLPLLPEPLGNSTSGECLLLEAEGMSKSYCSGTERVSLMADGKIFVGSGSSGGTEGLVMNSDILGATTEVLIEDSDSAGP
T1 sequence (Q96SW2 whole entry): as the sequence (Q96SW2 whole entry) above
T1 sequence (Q16531 whole entry partner): as the sequence (Q16531 whole entry partner) above

One may read the DC50 as the concentration at which degradation of the target reaches its halfway point. `Cc1c(Cl)cc(NC(=O)NCc2ccc3c(c2)C(=O)N(C2CCC(=O)NC2=O)C3)cc1CN1C2CCC1COC2` (centres unmarked) [Compound 138]: the ZFP91 degradation entry on ZFP91 is “A”. Besides, at GSPT1 [1], the 50% degradation concentration (DC50) is ≤ 100 nM.

For `Cc1ccc(NC(=O)NCc2ccc3c(c2)C(=O)N(C2CCC(=O)NC2=O)C3)cc1Cl` (centres unmarked) [Compound 8], on ZFP91, the ZFP91 degradation entry is given as “B (B represents trace degradation at 30 μM (below 20%))”. For the same molecule, the DC50 at GSPT1 [1] was ≤ 100 nM.

For the molecule `Cc1ccc(NC(=O)OCc2ccc3c(c2)C(=O)N(C2CCC(=O)NC2=O)C3)cc1Cl` (centres unmarked) [Compound 210], the “GSPT1 degradation in tumors” value at GSPT1 [2] is reported as “complete degradation of GSPT1”.
